# Experimental data taken from PubChem BioAssay (NCI).
#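 The compound was tested at five concentrations on cells cultured in 96-well plates, with a 48-hour exposure period. Abbreviation: GI50, concentration required for 50% inhibition of growth. The concentration for full growth arrest is given as TGI.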
# Columns and labels:
# Assay in all cases: NCI anticancer screen, dose series, 48 h
# ACHN renal = tested on: ACHN renal
# K-562 leukemia = tested on: K-562 leukemia
# SF-539 CNS = tested on: SF-539 CNS
# RPMI-8226 leukemia = tested on: RPMI-8226 leukemia
# NCI-H522 lung = tested on: NCI-H522 lung
# UACC-257 melanoma = tested on: UACC-257 melanoma
# CCRF-CEM leukemia = tested on: CCRF-CEM leukemia
# SNB-75 CNS = tested on: SNB-75 CNS
# MDA-MB-435 = tested on: MDA-MB-435
# SF-268 CNS = tested on: SF-268 CNS
# UACC-62 melanoma = tested on: UACC-62 melanoma
# BT-549 breast = tested on: BT-549 breast
# UO-31 renal = tested on: UO-31 renal
# MDA-MB-231 breast = tested on: MDA-MB-231 breast
# NCI/ADR-RES ovarian = tested on: NCI/ADR-RES ovarian
# CAKI-1 renal = tested on: CAKI-1 renal
# OVCAR-8 ovarian = tested on: OVCAR-8 ovarian
# HCT-116 colon = tested on: HCT-116 colon
# T-47D breast = tested on: T-47D breast
# PC-3 prostate = tested on: PC-3 prostate
# OVCAR-4 ovarian = tested on: OVCAR-4 ovarian
# HL-60(TB) leukemia = tested on: HL-60(TB) leukemia
# HOP-92 NSCLC = tested on: HOP-92 NSCLC
# OVCAR-3 ovarian = tested on: OVCAR-3 ovarian
# SK-MEL-2 melanoma = tested on: SK-MEL-2 melanoma
# MALME-3M melanoma = tested on: MALME-3M melanoma
# SF-295 CNS = tested on: SF-295 CNS
# HCC-2998 colon = tested on: HCC-2998 colon
# SK-MEL-28 melanoma = tested on: SK-MEL-28 melanoma
# SK-MEL-5 melanoma = tested on: SK-MEL-5 melanoma
# U251 CNS = tested on: U251 CNS
# OVCAR-5 ovarian = tested on: OVCAR-5 ovarian
# DU-145 prostate = tested on: DU-145 prostate
# SW-620 colon = tested on: SW-620 colon
# SR leukemia = tested on: SR leukemia
# LOX IMVI melanoma = tested on: LOX IMVI melanoma
# HS 578T breast = tested on: HS 578T breast
# SK-OV-3 ovarian = tested on: SK-OV-3 ovarian
# HOP-62 NSCLC = tested on: HOP-62 NSCLC
# M14 melanoma = tested on: M14 melanoma
# EKVX NSCLC = tested on: EKVX NSCLC
# NCI-H226 lung = tested on: NCI-H226 lung
# HT29 colon = tested on: HT29 colon
# IGROV1 ovarian = tested on: IGROV1 ovarian
# COLO 205 colon = tested on: COLO 205 colon
# A498 renal = tested on: A498 renal
# HCT-15 colon = tested on: HCT-15 colon
# MCF7 breast = tested on: MCF7 breast
# 786-0 renal = tested on: 786-0 renal
# SNB-19 CNS = tested on: SNB-19 CNS
# KM12 colon = tested on: KM12 colon
# SN12C renal = tested on: SN12C renal
# NCI-H460 lung = tested on: NCI-H460 lung
# NCI-H23 lung = tested on: NCI-H23 lung
# A549 NSCLC = tested on: A549 NSCLC
# TK-10 renal = tested on: TK-10 renal
# MOLT-4 leukemia = tested on: MOLT-4 leukemia
structure (smiles),measurement,setting,value
CCN(CC)CCOc1ccc(C(=C(c2ccccc2)C2CCCC2)c2ccc(OCCN(CC)CC)cc2)cc1,GI50,ACHN renal,> 16.3 µM
same,TGI,ACHN renal,> 16.3 µM
same,GI50,K-562 leukemia,5.57 µM
same,TGI,K-562 leukemia,> 16.3 µM
same,GI50,SF-539 CNS,5.51 µM
same,TGI,SF-539 CNS,> 16.3 µM
same,GI50,RPMI-8226 leukemia,2.77 µM
same,TGI,RPMI-8226 leukemia,10.7 µM
same,GI50,NCI-H522 lung,6.3 µM
same,TGI,NCI-H522 lung,> 16.3 µM
same,GI50,UACC-257 melanoma,5.09 µM
same,TGI,UACC-257 melanoma,> 16.3 µM
same,GI50,CCRF-CEM leukemia,4.52 µM
same,TGI,CCRF-CEM leukemia,> 16.3 µM
same,GI50,SNB-75 CNS,4.58 µM
same,TGI,SNB-75 CNS,> 16.3 µM
same,GI50,MDA-MB-435,3.19 µM
same,TGI,MDA-MB-435,7.45 µM
same,GI50,SF-268 CNS,5.35 µM
same,TGI,SF-268 CNS,> 16.3 µM
same,GI50,UACC-62 melanoma,3.92 µM
same,TGI,UACC-62 melanoma,11.1 µM
same,GI50,BT-549 breast,2.27 µM
same,TGI,BT-549 breast,6.04 µM
same,GI50,UO-31 renal,> 16.3 µM
same,TGI,UO-31 renal,> 16.3 µM
same,GI50,MDA-MB-231 breast,4.57 µM
same,TGI,MDA-MB-231 breast,15.6 µM
same,GI50,NCI/ADR-RES ovarian,> 16.3 µM
same,TGI,NCI/ADR-RES ovarian,> 16.3 µM
same,GI50,CAKI-1 renal,> 16.3 µM
same,TGI,CAKI-1 renal,> 16.3 µM
same,GI50,OVCAR-8 ovarian,6.88 µM
same,TGI,OVCAR-8 ovarian,> 16.3 µM
same,GI50,HCT-116 colon,4.89 µM
same,TGI,HCT-116 colon,> 16.3 µM
same,GI50,T-47D breast,5.6 µM
same,TGI,T-47D breast,> 16.3 µM
same,GI50,PC-3 prostate,6.16 µM
same,TGI,PC-3 prostate,> 16.3 µM
same,GI50,OVCAR-4 ovarian,5.35 µM
same,TGI,OVCAR-4 ovarian,> 16.3 µM
same,GI50,HL-60(TB) leukemia,3.13 µM
same,TGI,HL-60(TB) leukemia,7.14 µM
same,GI50,HOP-92 NSCLC,1.33 µM
same,TGI,HOP-92 NSCLC,6.89 µM
same,GI50,OVCAR-3 ovarian,3.07 µM
same,TGI,OVCAR-3 ovarian,6.54 µM
same,GI50,SK-MEL-2 melanoma,5.49 µM
same,TGI,SK-MEL-2 melanoma,> 16.3 µM
same,GI50,MALME-3M melanoma,3.57 µM
same,TGI,MALME-3M melanoma,10.3 µM
same,GI50,SF-295 CNS,5.77 µM
same,TGI,SF-295 CNS,> 16.3 µM
same,GI50,HCC-2998 colon,4.62 µM
same,TGI,HCC-2998 colon,> 16.3 µM
same,GI50,SK-MEL-28 melanoma,6.5 µM
same,TGI,SK-MEL-28 melanoma,> 16.3 µM
same,GI50,SK-MEL-5 melanoma,5.31 µM
same,TGI,SK-MEL-5 melanoma,> 16.3 µM
same,GI50,U251 CNS,3.85 µM
same,TGI,U251 CNS,12.5 µM
same,GI50,OVCAR-5 ovarian,6.13 µM
same,TGI,OVCAR-5 ovarian,> 16.3 µM
same,GI50,DU-145 prostate,7.97 µM
same,TGI,DU-145 prostate,> 16.3 µM
same,GI50,SW-620 colon,5.05 µM
same,TGI,SW-620 colon,> 16.3 µM
same,GI50,SR leukemia,3.29 µM
same,TGI,SR leukemia,7.88 µM
same,GI50,LOX IMVI melanoma,4.45 µM
same,TGI,LOX IMVI melanoma,14.7 µM
same,GI50,HS 578T breast,3.64 µM
same,TGI,HS 578T breast,12.8 µM
same,GI50,SK-OV-3 ovarian,7.95 µM
same,TGI,SK-OV-3 ovarian,> 16.3 µM
same,GI50,HOP-62 NSCLC,9.41 µM
same,TGI,HOP-62 NSCLC,> 16.3 µM
same,GI50,M14 melanoma,7.22 µM
same,TGI,M14 melanoma,> 16.3 µM
same,GI50,EKVX NSCLC,7.53 µM
same,TGI,EKVX NSCLC,> 16.3 µM
same,GI50,NCI-H226 lung,6.58 µM
same,TGI,NCI-H226 lung,> 16.3 µM
same,GI50,HT29 colon,3.82 µM
same,TGI,HT29 colon,10.4 µM
same,GI50,IGROV1 ovarian,3.49 µM
same,TGI,IGROV1 ovarian,7.66 µM
same,GI50,COLO 205 colon,3.2 µM
same,TGI,COLO 205 colon,7.63 µM
same,GI50,A498 renal,> 16.3 µM
same,TGI,A498 renal,> 16.3 µM
same,GI50,HCT-15 colon,> 16.3 µM
same,TGI,HCT-15 colon,> 16.3 µM
same,GI50,MCF7 breast,2.53 µM
same,TGI,MCF7 breast,5.01 µM
same,GI50,786-0 renal,12.2 µM
same,TGI,786-0 renal,> 16.3 µM
same,GI50,SNB-19 CNS,4.96 µM
same,TGI,SNB-19 CNS,> 16.3 µM
same,GI50,KM12 colon,2.81 µM
same,TGI,KM12 colon,5.28 µM
same,GI50,SN12C renal,5.28 µM
same,TGI,SN12C renal,> 16.3 µM
same,GI50,NCI-H460 lung,4.84 µM
same,TGI,NCI-H460 lung,> 16.3 µM
same,GI50,NCI-H23 lung,5.64 µM
same,TGI,NCI-H23 lung,> 16.3 µM
same,GI50,A549 NSCLC,6.46 µM
same,TGI,A549 NSCLC,> 16.3 µM
same,GI50,TK-10 renal,> 16.3 µM
same,TGI,TK-10 renal,> 16.3 µM
same,GI50,MOLT-4 leukemia,4.47 µM
same,TGI,MOLT-4 leukemia,13.3 µM
